Earlier results as cited in US20030219799A1, “Cancer-linked gene as target for chemotherapy” (priority 2002, published 2003).

What was measured:
[1] = test system: cultured cell lines; conditions: versus cis-platin and doxorubicin
[2] = in vitro
[3] = in vivo
[4] = test system: subcutaneous COLO 205 human colon tumor xenografts; conditions: mice, subcutaneous COLO 205 xenografts, doses well below the maximum tolerated dose
[5] = test system: cultured colon cancer cells

## Cc1c[nH]c2c1[C@@]13C[C@@H]1CN(C(=O)c1cc4cc(NC(=O)c5cc6ccccc6o5)ccc4[nH]1)C3=CC2=O [Adozelesin]
[1]
  toxicity to cultured cell lines relative to other DNA interacting agents: about 1,000 fold

## COc1cc2cc(c1Cl)N(C)C(=O)C[C@H](OC(=O)[C@H](C)N(C)C(=O)CCS)[C@]1(C)O[C@H]1[C@H](C)[C@@H]1C[C@@](O)(NC(=O)O1)[C@H](OC)/C=C/C=C(\C)C2 [DM1]
[2]
  cytotoxicity relative to maytansine: up to 10 fold

## COc1cc2cc(c1Cl)N(C)C(=O)C[C@H](OC(=O)[C@H](C)N(C)C(C)=O)[C@]1(C)O[C@H]1[C@H](C)[C@@H]1C[C@@](O)(NC(=O)O1)[C@H](OC)/C=C/C=C(\C)C2 [Maytansine]
[3]
  value in human clinical trials: little value

B1: immunoconjugate of the maytansinoid cytotoxin DM1 and C242 antibody: DM1 linked to C242, a murine IgG1 with affinity for a mucin-like glycoprotein of human colorectal cancers (conjugate, chains of the INN, looked up)
VH: QVQLVQSGAEVKKPGETVKISCKASDYTFTYYGMNWVKQAPGQGLKWMGWIDTTTGEPTYAQKFQGRIAFSLETSASTAYLQIKSLKSEDTATYFCARRGPYNWYFDVWGQGTTVTVSS
VL: DIVMTQSPLSVPVTPGEPVSISCRSSKSLLHSNGNTYLYWFLQRPGQSPQLLIYRMSNLVSGVPDRFSGSGSGTAFTLRISRVEAEDVGVYYCLQHLEYPFTFGPGTKLELK
modifications: DM1 maytansinoid conjugate
[4]
  anti-tumor effects in vivo: anti-tumor effects
[5]
  cytotoxicity against cultured colon cancer cells: highly cytotoxic
